Series [1] relates to human isolated pancreatic islets. As to the kind of experiment: GSIS in human isolated pancreatic islets. Format: cell-based. Particulars: one donor, 30 min incubation (Example 4, FIG. 4). As for the experimental part: Rat islets were isolated from male Sprague-Dawley (SD) rats (8-12 weeks old, n=6) as described by Yang Z. et al. […] Insulin secretion assay was performed essentially as previously described by Liu D. et al. Steroids 2006, 71, 691-699. […] Insulin secreted in experimental samples was measured by a RIA kit (Mercodia, N.C.). […] The procedure used for the human islets was the same as the procedure used in Example 1 above, except that the incubation period was 30 minutes, instead of the 60 minutes used in Example 1.

The target in series [2] is T1, IKr (Canis lupus familiaris, UniProt Q9TSZ3).
T1 sequence (Q9TSZ3 1-1158): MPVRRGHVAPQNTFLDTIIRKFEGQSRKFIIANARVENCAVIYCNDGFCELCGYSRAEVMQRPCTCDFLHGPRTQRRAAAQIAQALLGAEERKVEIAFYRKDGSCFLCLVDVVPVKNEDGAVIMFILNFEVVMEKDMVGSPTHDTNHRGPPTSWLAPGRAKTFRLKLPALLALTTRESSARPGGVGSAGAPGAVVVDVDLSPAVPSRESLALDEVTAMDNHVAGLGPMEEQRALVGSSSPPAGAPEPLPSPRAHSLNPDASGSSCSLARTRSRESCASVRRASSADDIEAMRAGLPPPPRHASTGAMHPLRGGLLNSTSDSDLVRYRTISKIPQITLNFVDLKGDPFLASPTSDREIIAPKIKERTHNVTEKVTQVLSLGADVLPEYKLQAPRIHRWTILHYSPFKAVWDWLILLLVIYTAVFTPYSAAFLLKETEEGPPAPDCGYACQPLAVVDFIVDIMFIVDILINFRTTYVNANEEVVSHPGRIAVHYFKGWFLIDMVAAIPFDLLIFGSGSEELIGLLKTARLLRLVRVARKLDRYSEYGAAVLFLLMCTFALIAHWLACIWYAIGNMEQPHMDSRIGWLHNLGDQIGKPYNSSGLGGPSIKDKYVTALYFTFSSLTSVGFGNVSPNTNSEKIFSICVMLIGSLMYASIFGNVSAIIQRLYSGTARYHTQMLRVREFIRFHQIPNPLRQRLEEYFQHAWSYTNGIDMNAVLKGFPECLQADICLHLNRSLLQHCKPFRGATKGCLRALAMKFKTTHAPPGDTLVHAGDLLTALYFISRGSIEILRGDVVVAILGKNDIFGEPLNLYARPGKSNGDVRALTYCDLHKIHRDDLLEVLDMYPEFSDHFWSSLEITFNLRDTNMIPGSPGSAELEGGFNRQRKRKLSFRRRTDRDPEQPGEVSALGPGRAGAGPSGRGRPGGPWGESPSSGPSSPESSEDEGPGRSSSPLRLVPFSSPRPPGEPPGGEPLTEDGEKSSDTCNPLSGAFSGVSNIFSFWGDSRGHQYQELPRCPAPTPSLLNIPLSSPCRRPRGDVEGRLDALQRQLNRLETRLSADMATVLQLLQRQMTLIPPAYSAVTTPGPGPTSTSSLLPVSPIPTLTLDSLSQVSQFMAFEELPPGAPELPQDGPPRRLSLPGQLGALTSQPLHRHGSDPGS
The series can be described thus: cell-based. As for the experimental part: Whole cell currents were recorded from isolated canine left ventricular midmyocrdial cells at 37° C. IKr and IKs were recorded during standard pulse protocols. Action potentials recorded at basic cycle lengths (BCL) of 300 and 2000 ms were used as command waveforms during voltage claim to measure late INa. Enantiomeric effects were determined at concentrations of 3, 10, and 30 μM.
Late INa was evaluated at two voltages during the plateau and final repolarization of an action potential voltage claims.

Series [3] concerns rat isolated pancreatic islets. The series can be described thus: Glucose stimulated insulin secretion (GSIS) in rat isolated pancreatic islets. Type of series: cell-based. As for the experimental part:
Rat islets were isolated from male Sprague-Dawley (SD) rats (8-12 weeks old, n=6) as described by Yang Z. et al. […] Insulin secretion assay was performed essentially as previously described by Liu D. et al. Steroids 2006, 71, 691-699. […] Insulin secreted in experimental samples was measured by a RIA kit (Mercodia, N.C.). All insulin secretion data in the present study were normalized to insulin secretion per islet. There was a biphasic response for insulin secretion to ranolazine.

A short description of series [4]: Solubility in aqueous solutions by pH (Table 1). Type of series: physicochemical.
For a further series, the system named is IKs. Conditions: Zygmunt et al. (2002); read-out: IC50 value (current not named); cited from earlier work.
For series [5] the following is noted: patients; U.S. Patent Publication No. 2004/0063717; cited from earlier work.
Series [6] deals with T2, CYP2D6 (Homo sapiens, UniProt P10635). The series can be described thus: biochemical.
T2 sequence (P10635 whole entry): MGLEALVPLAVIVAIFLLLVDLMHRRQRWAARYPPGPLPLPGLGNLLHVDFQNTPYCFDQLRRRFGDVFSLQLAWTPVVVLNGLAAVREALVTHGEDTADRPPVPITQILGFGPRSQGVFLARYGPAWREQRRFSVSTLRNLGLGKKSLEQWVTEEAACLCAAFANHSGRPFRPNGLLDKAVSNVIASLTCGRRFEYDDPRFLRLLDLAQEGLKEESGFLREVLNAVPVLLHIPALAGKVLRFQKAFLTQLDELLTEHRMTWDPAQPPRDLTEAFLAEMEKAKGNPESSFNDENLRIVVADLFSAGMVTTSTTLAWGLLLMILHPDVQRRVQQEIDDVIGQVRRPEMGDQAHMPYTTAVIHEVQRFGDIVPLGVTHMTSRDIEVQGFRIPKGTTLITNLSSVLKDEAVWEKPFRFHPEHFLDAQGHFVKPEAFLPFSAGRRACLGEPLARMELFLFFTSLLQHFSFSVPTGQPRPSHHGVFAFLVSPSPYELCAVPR
Procedure: The substrate, buffer and enzyme were pre-warmed at 37° C. The pre-warmed NADPH regenerating system and were then added and the samples gently mixed and incubated for 30 minutes. The effect of ranolazine on the CYP2D6 marker reactions to form 1-hydroxy-bufurolol, and dextrophan was monitored by tandem mass spectrometric assays. A known CYP2D6 inhibitor, quinidine, was included as a positive control. The negative control samples consisted of all components except ranolazine or known inhibitors. Incubations were carried out in duplicate.
For series [7], the target named is T2, CYP2D6. As to the kind of experiment: Inhibitory effects on CYP2D6 in extensive metabolizers of dextromethorphan. Type of series: in vivo. Set-up: evaluated in extensive metabolizers of dextromethorphan; from tissue; host or cells: in vivo, subjects who are extensive metabolizers.
In series [8] the target is T1, IKr. Also noted: Whole cell currents were recorded from isolated canine left ventricular midmyocrdial cells; endogenous in cells; host or cells: isolated canine left ventricular midmyocardial cells. Conditions: Zygmunt et al. (2002); cited from earlier work.

Molecules are shown by their SMILES. In brackets after ≈: the same amount, converted by molar mass. Like-named read-outs stand apart in the source and are kept apart here. A value given as a limit tells only on which side of the number the result lay.

What is called IC50 is the concentration that gives 50% inhibition. The Solubility is how much of the substance goes into solution per volume. A low value points to a poorly soluble substance.

With `COc1ccccc1OC[C@H](O)CN1CCN(CC(=O)Nc2c(C)cccc2C)CC1` [R-ranolazine, (R)-(+)-N-(2,6-dimethylphenyl)-4-[2-hydroxy-3-(2-methoxyphenoxy)-propyl]-1-piperazineacetamide], the “increasing the secretion of insulin in response to glucose” value in [1] was “significantly more effective”. The 50% inhibitory concentration (IC50) at IKr [2] came out at 28 ± 4 µM.

Take `COc1ccccc1OCC(O)CN1CCN(CC(=O)Nc2c(C)cccc2C)CC1` (racemic) [ranolazine, (±)-N-(2,6-dimethylphenyl)-4-[2-hydroxy-3-(2-methoxyphenoxy)propyl]-1-piperazine-acetamide]: the “increase of insulin secretion (GSIS)” value in series [3] (1 nM to 1 μM, concentration-dependent, 20 mM glucose, 60 min) is given as 2-5 fold. The “effect on GSIS” value in [3] (10 μM, compared with 20 mM glucose alone) was “no significant effect on GSIS”. Moreover, the “USP Solubility Class” value in series [4] (Solution pH 4.81) is on record as “Freely Soluble”; in series [4] (Solution pH 4.89), “Soluble”; in [4] (Solution pH 4.90), “Soluble”; in series [4] (Solution pH 5.04) it was “Soluble”; in [4] (Solution pH 5.35), “Sparingly Soluble”; in series [4] (Solution pH 5.82), “Slightly soluble”. For the same molecule, the “USP Solubility Class” value is reported as “Slightly soluble” in series [4] (Solution pH 6.46); “Very slightly soluble” in [4] (Solution pH 6.73); “Very slightly soluble” in series [4] (Solution pH 7.08); “Very slightly soluble” in series [4] (Solution pH 7.59 (unbuffered water)); “Very slightly soluble” in series [4] (Solution pH 7.79); “Very slightly soluble” in [4] (Solution pH 12.66). The Solubility in [4] (Solution pH 7.79) came out at 0.17 mg/mL (≈ 398 µM). Further, the IC50 in the series with IKs was > 100 µM; on CYP2D6 [6], 324 µM; on IKr [8] it was 11 µM. Moreover, the HbA1c levels entry in series [5] is listed as “reduced HbA1c levels”. The “inhibition of CYP2D6 by ranolazine and/or metabolites” value on CYP2D6 [7] was “partially inhibit CYP2D6”.

`COc1ccccc1OC[C@@H](O)CN1CCN(CC(=O)Nc2c(C)cccc2C)CC1` [S-ranolazine, (S)-(−)-N-(2,6-dimethylphenyl)-4-[2-hydroxy-3-(2-methoxyphenoxy)-propyl]-1-piperazineacetamide] came in with an IC50 against IKr [2] of 10 ± 2 µM.

(Values after patent publication US20080255031A1, “METHOD FOR ENHANCING INSULIN SECRETION” (priority 2007, published 2008).)
